US5942511A, “Allylthiopyridazine derivatives and process for preparing the same” (Kwon; Soon Kyoung, priority 1998, dated 1999)

Key:
hepatocyte necrosis [1] = assay: Effect of inhibiting hepatic disorder induced by carbon tetrachloride: hepatocyte necrosis; assay type: in vivo, male ICR mice; conditions: CCl4 model, 50 mg/kg per day oral, 3 days; for Degree of necrosis 1: number of animals: grade 1 mild lesion; for Degree of necrosis 2: number of animals: grade 2 moderate lesion; for Degree of necrosis 3: number of animals: grade 3 severe lesion; for Degree of necrosis 4: number of animals: grade 4 diffused lesion
Protocol: (§1) In the present invention, the inhibiting effect of the compound of formula (I) on hepatic disorder, induced by carbon tetrachloride and acetaminophene, was determined after oral administration of the novel compound according to the present invention to mouse as the experimental animal for 3 days. The degree of liver damage in respective experimental animal was determined by measuring ALT and LDH levels in blood [see, Biol. Pharm. Bull., 20, 4, 381-385, 1997; Toxicology and Applied Pharmacology, 95, 1-11, 1988], and further by removing the liver, staining (×100) the liver with hematoxylin and eosin and then observing with microscope to examine the degree of hepatocyte necrosis.
(§2) The liver protective effect of the compound according to the present invention was examined according to the known method [see, Philippe letteron et al., Biochemical Pharmacology, 39, 12, 2027-2034, 1990] as specifically described below.
(§3) The compound according to the present invention was suspended in corn oil and the resulting suspension was administered in an amount of 1.0 ml/kg. Each group was composed of 3 to 10 male ICR mice (5-6 weeks) and the test compound was orally administered for 3 days in the dose of 50 mg/kg per day. After the test compound was administered, carbon tetrachloride was intraperitoneally injected in an amount of 100 μl/kg. In this experiment, silymarin was used as the comparative compound. After 24 hours from administration of carbon tetrachloride, blood was taken from the test animal by cardiac perforation and ALT value in serum was determined. The result obtained is described in the following Table 2 (in which ALT value is represented by mean±SE). The ALT unit in serum was determined by centrifuging blood to separate serum as the supernatant, and then the separated serum were subjected to Reitman-Frankel method by means of a commercially available kit (BC101-O,P, Youngdong Pharm.). That is, DL-alanine and α-ketoglutarate were used as the substrate solution to which 2,4-dinitrophenylhydrazine was added to produce hydrazone. Then, sodium hydroxide was added to hydrazone to colorize and then the absorbance was measured at 505 nm.
(§4) In addition, liver was removed from the test animals, stained (×100) with hematoxylin and eosin and then observed by microscope. The degree of hepatocyte necrosis was evaluated according to the following 5 grades: 0 no lesion, 1 mild lesion, 2 moderate lesion, 3 severe lesion and 4 diffused lesion.

[2] = system: serum LDH (lactate dehydrogenase); assay: Effect of inhibiting hepatic disorder induced by acetaminophen (APAP): serum LDH; assay type: in vivo, male ICR mice; conditions: APAP 0.5 g/kg oral, compound 50 mg/kg per day oral, 3 days; for Serum LDH value: mean±SE
From the text: (§5) In addition, the liver protective effects of the compound of the present invention can also be confirmed by acetaminophen model [see, Wang et al., Toxicology and applied Pharmacology, 136, 146-154, 1996]. Acetaminophen is rapidly metabolized by CYP2E1 to cause hepatic toxicity, which results in structural and functional change in liver cellular membrane, causing necrosis in hepatic lobule, an increase in blood ALT and LDH (lactate dehydrogenase) levels.
as §1
(§6) Effect of inhibiting hepatic disorder induced by acetaminophen (APAP)
(§7) The liver protective effect of the compound according to the present invention was examined according to the known method [see, Wang et al., Toxicology and applied Pharmacology, 136, 146-154, 1996] as specifically described below.
(§8) The compound according to the present invention was suspended in corn oil and the resulting suspension was administered in an amount of 1.0 ml/kg. Each group was composed of 3 to 10 male ICR mice (5-6 weeks) and the test compound was orally administered for 3 days in the dose of 50 mg/kg per day. After 2 hours from the last administration of the test compound, acetaminophen was orally administered in an amount of 0.5 g/kg. In this experiment, silymarin was used as the comparative compound. After 22 hours from the administration of acetaminphen, blood was taken from the individual test animal and ALT and LDH values in serum were determined. The results as obtained are described in the following Tables 4 and 5 (in which ALT and LDH values are represented by mean±SE). In addition, liver was removed from the test animals and then observed according to the same manner as Experiment 3 to evaluate the degree of hepatocyte necrosis.

radiation damage = assay: Protective effect against radiation damage: survival of mouse; assay type: in vivo, male ICR mouse; conditions: 100 mg/kg per day, 2 days
From the text: Further, the present inventors have confirmed the protective effect of allylthiopyridazine derivative according to the present invention against radiation by administering the active compound to mouse, irradiating the radiation of 8 or 9Gy and, after a certain period, measuring the survival rate of mouse. For example, the survival rate during 30 days of 8Gy radiation can be seen from FIG. 3, and the specific experimental result is described in the following Table 7. Specifically, when 8Gy radiation is used, the survival rate during 30 days in the groups which only radiation was used was merely 48%, whereas the survival rates during 30 days in the groups to which the compounds of Examples 4 and 8 are previously administered were 76% and 70%, respectively. Therefore, it can be noted that the protective effect of the compound according to the present invention against radiation is proven to be a very significant novel discovery.
Protective effect against radiation damage
In order to confirm the protective effect of the compound of the present invention against radiation damage, the following test was conducted.
Male ICR mouse was bred in a chamber to which sterile atmosphere is supplied, at inner temperature 20-23° C. and relative humidity 50% with sufficient water and feed. When the weight of mouse reached 20-25 g, the compound of the present invention was suspended in corn oil and then administered for 2 days in the dose of 100 mg/kg (1 ml/kg) per day. After 3 hours from the last administration of the test compound, 8 or 9 Gy radiation was irradiated to mouse. Specifically, mouse was introduced into a box made of acryl which limited his movement, and then radiation produced from ^60 Co radioactive material was irradiated to whole body at the irradiating rate of 115.8 cGy/min. The dimension of acryl box was 31×31 cm^2, which is the same as the irradiating area of radiation. After 7 days of irradiation of γ-ray, mouse was sacrificed to conduct the histopathologic observation. The result of examining the survival rate during 30 days of irradiation of 8 Gy radiation is shown in FIG. 3, and the result of determining the survival rate after a certain period (10, 13 or 30 days) from irradiation of 8 or 9 Gy radiation is described in the following Table 7.

hepatocyte necrosis [3] = assay: Effect of inhibiting hepatic disorder induced by acetaminophen (APAP): hepatocyte necrosis; assay type: in vivo, male ICR mice; conditions: APAP model, 50 mg/kg per day oral, 3 days; for Degree of necrosis 0: number of animals: grade 0 no lesion; for Degree of necrosis 1: number of animals: grade 1 mild lesion; for Degree of necrosis 2: number of animals: grade 2 moderate lesion; for Degree of necrosis 3: number of animals: grade 3 severe lesion; for Degree of necrosis 4: number of animals: grade 4 diffused lesion
Protocol: as §1, §4, §7, §8

[4] = system: serum ALT (alanine aminotransferase); assay: Effect of inhibiting hepatic disorder induced by carbon tetrachloride: serum ALT; assay type: in vivo, male ICR mice; conditions: CCl4 100 μl/kg i.p., compound 50 mg/kg per day oral, 3 days; for Serum ALT value: mean±SE
From the text: First, the effects of allylthiopyridazine derivative of formula (I) for prevention and treatment of hepatic diseases was examined using carbon tetrachloride model and acetaminophen model.
Carbon tetrachloride model [see, Philippe letteron et al., Biochemical Pharmacology, 39, 12, 2027-2034, 1990] is most frequently used as an experimental model of hepatic disorder and has been established on the basis of the fact that carbon tetrachloride is converted into trichloromethyl free radical (CCl3 .), a highly toxic metabolite, by the action of cytochrome P-450 in body. This metabolite strongly binds with thiol group of liver microsomal membrane protein to produce a lipid radical, which is then converted into peroxy radical in the presence of oxygen, thereby stimulating the peroxidation reaction of membrane lipid. That is, carbon tetrachloride inhibits protein biosynthesis in liver, increases blood ALT (alanine aminotransferase) and causes centrilobular necrosis of liver cells.
as §1
Effect of inhibiting hepatic disorder induced by carbon tetrachloride
as §2, §3

[5] = system: serum ALT (alanine aminotransferase); assay: Effect of inhibiting hepatic disorder induced by acetaminophen (APAP): serum ALT; assay type: in vivo, male ICR mice; conditions: APAP 0.5 g/kg oral, compound 50 mg/kg per day oral, 3 days; for Serum ALT value: mean±SE
From the text: as §5, §1, §6, §7, §8

[6] = system: microsomal epoxide hydrolase (mEH) and glutathione S-transferases (GST); conditions: literature; cited from earlier work
[7] = literature; cited from earlier work
[8] = literature; cited from earlier work; remark: listed apart in the source
[9] = induced by carbon tetrachloride and acetaminophen; cited from earlier work

| Structure (SMILES) | Degree of necrosis 1: number of animals (hepatocyte necrosis [1]) | Degree of necrosis 2: number of animals (hepatocyte necrosis [1]) | Degree of necrosis 3: number of animals (hepatocyte necrosis [1]) | Degree of necrosis 4: number of animals (hepatocyte necrosis [1]) | Inhibiting rate (serum LDH) [2] | Serum LDH value [2] | Degree of necrosis 0: number of animals (hepatocyte necrosis [3]) | Degree of necrosis 1: number of animals (hepatocyte necrosis [3]) | Degree of necrosis 2: number of animals (hepatocyte necrosis [3]) | Degree of necrosis 3: number of animals (hepatocyte necrosis [3]) | Degree of necrosis 4: number of animals (hepatocyte necrosis [3]) | Inhibiting rate (serum ALT) [4] | Serum ALT value [4] | Inhibiting rate (serum ALT) [5] | Serum ALT value [5] | effect on oncogenesis and hepatotoxicity of 1,2-dimethylhydrazine [8] | other results |
| --- | --- | --- | --- | --- | --- | --- | --- | --- | --- | --- | --- | --- | --- | --- | --- | --- | --- |
| C=CCSc1ccc(OCC)nn1 [Example 8] | 1 | 2 | 1 | 3 | 95.6% | 1193 ± 546 KA unit/l | 7 | 0 | 2 | 0 | 0 | 33% | 6123 ± 2230 KA unit/l | 99% | 98 ± 26 KA unit/l |  | survival number (radiation damage; 10 days of 9 Gy radiation): 17/23; survival rate (radiation damage; 10 days of 9 Gy radiation): 74%; survival number (radiation damage; 13 days of 9 Gy radiation): 5/23; survival rate (radiation damage; 13 days of 9 Gy radiation): 22%; survival number (radiation damage; 30 days of 8 Gy radiation): 16/23; survival rate (radiation damage; 30 days of 8 Gy radiation): 70% |
| C=CCSc1ccc(OCCC)nn1 [Example 12, 3-(n-propoxy)-6-allylthiopyridazine] | 0 | 2 | 3 | 4 | 59% | 5480 ± 2346 KA unit/l | 0 | 1 | 1 | 1 | 3 | 40% | 5585 ± 705 KA unit/l | 25% | 2749 ± 1352 KA unit/l |  | Degree of necrosis 0: number of animals (hepatocyte necrosis [1]; grade 0 no lesion): 0 |
| Cc1c(-c2cnccn2)ssc1=S [Oltipraz] |  |  |  |  |  |  |  |  |  |  |  |  |  |  |  |  | expression rate of mEH and GST [6]: increases the expression rate of microsomal epoxide hydrolase (mEH) and glutathione S-transferases (GST); protection of cellular tissue from radiation [7]: protect the cellular tissue from radiation |
| C=CCS[S+]([O-])CC=C (stereo not drawn) [allicin] |  |  |  |  |  |  |  |  |  |  |  |  |  |  |  | inhibiting oncogenesis due to 1,2-dimethylhydrazine and protecting liver from hepatotoxicity of 1,2-dimethylhydrazine |  |
| C=CCSCC=C [diallyl sulfide] |  |  |  |  |  |  |  |  |  |  |  |  |  |  |  | inhibiting oncogenesis due to 1,2-dimethylhydrazine and protecting liver from hepatotoxicity of 1,2-dimethylhydrazine |  |
| CC(C)OC(=O)C(C(=O)OC(C)C)=C1SC=CS1 [malotilate] |  |  |  |  |  |  |  |  |  |  |  |  |  |  |  |  | effect of preventing and treating hepatic diseases [9]: good effect of preventing and treating hepatic diseases induced by carbon tetrachloride and acetaminophen |
